From PMC11237012, “Synthesis and preliminary evaluation of novel PET probes for GSK-3 imaging” (Scientific Reports, 2024)

Assay: In vivo PET imaging, uptake in brain and liver
Design: species or system wild-type FVB/NJ mice
Method: To evaluate the imaging potential and brain uptake of PET probe [^18F]2, we selected FVB/NJ wild-type mice and performed radiotracer uptake studies via tail vein injection of [^18F]2 followed by dynamic imaging upto 60 min and static imaging at 120 min post-injection. Ex-vivo biodistribution was performed immediately after 120 min static imaging. Uptake of [^18F]2 was assessed in the brain and liver of wild-type FVB/NJ mice by PET imaging at different time points post-injection with and without co-administration of 2 (reference compound as a self-blocking agent). Representative transverse sectional PET images of the brain at different time points are shown in Fig. 6 and representative coronal and sagittal sectional PET images of the liver and whole-body PET images are shown in SI-Figs. S17 and S18, respectively. It was encouraging to observe brain uptake of PET probe [^18F]2 with a standard uptake value (SUV) of 0.92 ± 0.28 (n = 6) at 5 min post-injection. Approximately 80% of PET probe [^18F]2 was cleared from the wild-type mice brain in the first 30 min. The uptake of [^18F]2 in the brain was lower than in the liver at all time points post-injection. […] The contrasting response in uptake of [^18F]2 in the brain in the presence of 2 could be attributed to the peripheral effect. […] This is also evident from the higher concentration of 2 in the blood of the animals in which [^18F]2 was co-administered with 2 as compared to administration of only [^18F]2 (Figs. 6, 7 and 8 and SI-Table S2, SI-Figs. S17, S18). A similar observation was also reported by Lindberg et al. 2021 with [^11C]verubulin in rats, where co-injection of verubulin increased the uptake of [^11C]verubulin in the brain and was attributed to the saturation of the enzymes (e.g. cytochrome P450 enzymes) that metabolize the tracer in the liver, leading to increased bioavailability. It is also plausible that the isonicotinamide class of compounds are substrate for cytochrome P450 enzymes.
Uptake of PET probe [^18F]2 (1.40 ± 0.61 MBq) was assessed with and without co-administration of 2 in 10–13-week-old wild-type FVB/NJ mice (The Jackson Laboratory, Bar Harbor, ME) after tail vein injection followed by PET imaging at 5 min, 10 min, 15 min, 20 min, 25 min, 30 min, 40 min, 50 min, 60 min and 120 min post injection. Additionally, ex vivo biodistribution was performed at 5 min, 10 min and 120 min post tail vein injection. To prepare [^18F]2 formulation for injection, 0.76 ± 0.48 µg (2.01 ± 1.27 nmol) of [^18F]2 was formulated in 10% ethanol/ 90% isotonic saline. For the blocking experiment, 20.21 ± 1.63 µg (53.75 ± 4.33 nmol) of 2 in DMSO was added to [^18F]2 (Am of 87.27 ± 77.26 (n = 13) GBq/µmole, having 0.46 ± 0.31 µg or 1.23 ± 0.83 nmol of nonradioactive 2 in it) in the final formulation volume of ~ 100 µL. This study had 12 wild type FVB/NJ male mice with body weight 31.8 ± 2.7 g and 10 wild type FVB/NJ female mice with body weight 27.0 ± 3.6 g at the time of imaging. All the animals were anesthetized for tail vein injection and PET imaging using an induction dose of 3% isoflurane and a maintenance dose of 2–3% isoflurane, which was administered via isoflurane vaporizer. All anesthetized animals were kept warm during imaging using a heat supported imaging chamber. For ex vivo biodistribution studies, animals were sacrificed at 5 min, 10 min and 120 min post-injection by cervical dislocation and tissues were harvested for gamma counting. For PET imaging studies, each animal underwent a 60 min dynamic PET scan (Framing Sequence: 1 × 10 s, 4 × 15 s, 8 × 30 s, 5 × 60 s, 4 × 300 s, 3 × 600 s) immediately post injection followed by 10 min static PET scan at 120 min post-injection on small animal micro-PET/X-ray system, Genesys 4 (Sofie BioSystems, Dulles, VA, USA). The PET images were reconstructed using Genesys 4 imaging software installed on the imaging system. […]

For `O=C(Nc1cnccc1-c1ccc([18F])cc1)c1ccnc(NC(=O)C2CC2)c1` [[^18F]2], the “Uptake (SUV) by PET image analysis” value (brain, 5 min post-injection, [^18F]2 + 20 µg of 2) was 0.93 ± 0.06, the “Uptake (SUV) by PET image analysis” value (brain, 5 min post-injection, [^18F]2 alone) was 0.92 ± 0.28 and the “Change of brain uptake on co-administration of compound 2” value (“Change of brain uptake” for short) (brain, 5 min time point) was “no difference in uptake”. The “Uptake (SUV) by PET image analysis” value (brain, 10 min post-injection, [^18F]2 + 20 µg of 2) was 0.57 ± 1.06, the “Uptake (SUV) by PET image analysis” value (brain, 10 min post-injection, [^18F]2 alone) was 0.38 ± 0.06 and the “Change of brain uptake” value (brain, 10 min time point) was 1.5 fold. The “Change of brain uptake” value (brain, 15 min, 20 min, 25 min and 30 min time points) was “twofold”, the “Uptake (SUV) by PET image analysis” value (brain, 15 min post-injection, [^18F]2 + 20 µg of 2) was 0.50 ± 0.06 and the “Uptake (SUV) by PET image analysis” value (brain, 15 min post-injection, [^18F]2 alone) was 0.24 ± 0.03. The “Uptake (SUV) by PET image analysis” value (brain, 20 min post-injection, [^18F]2 + 20 µg of 2) was 0.43 ± 0.06, the “Uptake (SUV) by PET image analysis” value (brain, 20 min post-injection, [^18F]2 alone) was 0.21 ± 0.02 and the “Uptake (SUV) by PET image analysis” value (brain, 25 min post-injection, [^18F]2 + 20 µg of 2) was 0.40 ± 0.06. For the same molecule, the “Uptake (SUV) by PET image analysis” value (brain, 25 min post-injection, [^18F]2 alone) was 0.19 ± 0.03, the “Uptake (SUV) by PET image analysis” value (brain, 30 min post-injection, [^18F]2 + 20 µg of 2) was 0.36 ± 0.06 and the “Uptake (SUV) by PET image analysis” value (brain, 30 min post-injection, [^18F]2 alone) was 0.19 ± 0.04. For the same molecule, the “Uptake (SUV) by PET image analysis” value (brain, 40 min post-injection, [^18F]2 + 20 µg of 2) was 0.31 ± 0.06, the “Uptake (SUV) by PET image analysis” value (brain, 40 min post-injection, [^18F]2 alone) was 0.18 ± 0.04 and the “Uptake (SUV) by PET image analysis” value (brain, 50 min post-injection, [^18F]2 + 20 µg of 2) was 0.28 ± 0.06. The “Uptake (SUV) by PET image analysis” value (brain, 50 min post-injection, [^18F]2 alone) was 0.17 ± 0.03, the “Uptake (SUV) by PET image analysis” value (brain, 60 min post-injection, [^18F]2 + 20 µg of 2) was 0.26 ± 0.06 and the “Uptake (SUV) by PET image analysis” value (brain, 60 min post-injection, [^18F]2 alone) was 0.16 ± 0.03. For the same molecule, the “Uptake (SUV) by PET image analysis” value (brain, 120 min post-injection, [^18F]2 + 20 µg of 2) was 0.18 ± 0.01, the “Uptake (SUV) by PET image analysis” value (brain, 120 min post-injection, [^18F]2 alone) was 0.09 ± 0.01 and the “Uptake (SUV) by PET image analysis” value (liver, 5 min post-injection, [^18F]2 + 20 µg of 2) was 5.24 ± 1.46. For the same molecule, the “Uptake (SUV) by PET image analysis” value (liver, 5 min post-injection, [^18F]2 alone) was 5.66 ± 1.18, the “Uptake (SUV) by PET image analysis” value (liver, 10 min post-injection, [^18F]2 + 20 µg of 2) was 5.86 ± 0.51 and the “Uptake (SUV) by PET image analysis” value (liver, 10 min post-injection, [^18F]2 alone) was 7.43 ± 0.66. For the same molecule, the “Uptake (SUV) by PET image analysis” value (liver, 15 min post-injection, [^18F]2 + 20 µg of 2) was 5.49 ± 0.28, the “Uptake (SUV) by PET image analysis” value (liver, 15 min post-injection, [^18F]2 alone) was 7.89 ± 0.59 and the “Uptake (SUV) by PET image analysis” value (liver, 20 min post-injection, [^18F]2 + 20 µg of 2) was 5.19 ± 0.27. The “Uptake (SUV) by PET image analysis” value (liver, 20 min post-injection, [^18F]2 alone) was 7.88 ± 0.60, the “Uptake (SUV) by PET image analysis” value (liver, 25 min post-injection, [^18F]2 + 20 µg of 2) was 4.93 ± 0.30 and the “Uptake (SUV) by PET image analysis” value (liver, 25 min post-injection, [^18F]2 alone) was 7.61 ± 0.65. The “Uptake (SUV) by PET image analysis” value (liver, 30 min post-injection, [^18F]2 + 20 µg of 2) was 4.76 ± 0.33, the “Uptake (SUV) by PET image analysis” value (liver, 30 min post-injection, [^18F]2 alone) was 7.34 ± 0.77 and the “Uptake (SUV) by PET image analysis” value (liver, 40 min post-injection, [^18F]2 + 20 µg of 2) was 4.55 ± 0.23. The “Uptake (SUV) by PET image analysis” value (liver, 40 min post-injection, [^18F]2 alone) was 6.91 ± 0.91, the “Uptake (SUV) by PET image analysis” value (liver, 50 min post-injection, [^18F]2 + 20 µg of 2) was 4.31 ± 1.15 and the “Uptake (SUV) by PET image analysis” value (liver, 50 min post-injection, [^18F]2 alone) was 6.40 ± 1.04. For the same molecule, the “Uptake (SUV) by PET image analysis” value (liver, 60 min post-injection, [^18F]2 + 20 µg of 2) was 4.09 ± 1.16, the “Uptake (SUV) by PET image analysis” value (liver, 60 min post-injection, [^18F]2 alone) was 5.95 ± 1.12 and the “Uptake (SUV) by PET image analysis” value (liver, 120 min post-injection, [^18F]2 + 20 µg of 2) was 3.19 ± 0.37. The “Uptake (SUV) by PET image analysis” value (liver, 120 min post-injection, [^18F]2 alone) was 2.78 ± 1.40 and the “Fraction of probe cleared from the brain” value (wild-type mice brain, in the first 30 min) was “Approximately 80%”.
